The values that follow come from US20230172885A1, “THIOL-CONTAINING COMPOUNDS FOR USE IN TREATING CORONAVIRUS” (priority 2020, published 2023).

Each structure is given as a SMILES string. “Also recorded” adds a separate entry of the source. Read-outs that look alike come from different tables or passages of the source.

The subject of data set [1] is SARS-2-S pseudovirus (rVSV-ΔG luciferase). Format: cell-based. Conditions: pseudovirus pre-incubated with 1.56-100 mM drug for 2 hours, 66-fold dilution.
Data set [2] addresses T1, RBD^original (SARS-CoV-2 receptor binding domain) binding to ACE2 (Severe acute respiratory syndrome coronavirus 2, UniProt P0DTC2).
T1 construct: ACRO Biosystems); purchased ACRO Biosystems
Conditions: for inhibition of binding of RBD^original to ACE2: RBD exposed to drug for 60 minutes, 0 to 20 mM; for binding of RBD^original to ACE2 at one and two hours post exposure and wash: drug at 5 mM for 1 hour, three washes.

The test system of data set [3] is SARS-CoV-2, isolate USA-WA1/2020. Format: cell-based.
Data set [4] deals with SARS-CoV-2.
Data set [5] has as its system SARS CoV2 (isolate USA-WA1/2020). Details: species or system Syrian hamsters (Mesocricetus auratus). The conditions noted are these: hamster, in vivo.
The conditions of data set [6]: cited from earlier work.
Data set [7] deals with T2, SARS-CoV-2 spike protein (SARS-2-S) binding to ACE2 (Severe acute respiratory syndrome coronavirus 2, UniProt P0DTC2).
T2 construct: Recombinantly expressed RBD of SARS-2-S was first immobilized to a surface

Data set [8] has as its system VSV pseudotype bearing the SARS-2-S protein (VSV-S). In kind it is cell-based, SARS-CoV-2.
The format of data set [9] is physicochemical. Conditions: 11 mg/mL in 20 mM sodium citrate, pH 4.5, 38.5 mM NaCl; Aerogen Solo vibrating mesh nebulizer.

Regarding `NCCS` [Cysteamine], the “pseudovirus cell entry, pseudovirus pre-treatment” value (“pseudovirus cell entry” for short) in data set [1] was “decrease the entry efficiency”. For the same compound, in data set [2], the “inhibition of binding of RBD^original to ACE2” value (“inhibition of binding … to ACE2” for short) is on record as “decreased binding; also recorded: strong inhibitory effects”; the “binding of RBD^original to ACE2 at one and two hours post exposure and wash” value is “binding inhibition was retained for two hours”. Besides, the “cytopathic effects (CPE) in virus-infected cells, virus exposed to drug prior to infection” value in [3] is “inhibit live virus infection; also recorded: significantly inhibited”. The “potency among thiol drugs in the in vitro assays” value in [4] is “most potent thiol drug”. Further, in [5], the “SARS-CoV2 viral titers (viral RNA, RT-qPCR) in lungs” value was “did not decrease; also recorded: does not decrease”; the “interleukin-6 levels in lung lavage” value is on record as “lower than control”; the “lung weights normalized to terminal body weights” value is on record as “lower than in control groups”; the “lymphocytes in BAL fluid” value was “decreases”. Also, in data set [5], the “neutrophils in BAL fluid” value is on record as “decreases”, the “severity of SARS-CoV2 lung inflammation” value was “did decrease; also recorded: decreased; also recorded: has anti-inflammatory effects” and the “total leukocyte counts in the bronchoalveolar lavage (BAL) fluid” value is recorded as “lower than control”. Also, in [6], the “pKa (thiol group)” value is reported as 8.2.
Consider `OCC(S)CS` (stereo not shown) [2,3-Dimercaprol], for which, in [6] (dithiol drugs, second thiol), the “pKa (thiol group)” value is 10.6.
Take `CC(S)C(=O)NCC(=O)O` (stereo not shown) [Tiopronin]: the “pKa (thiol group)” value in data set [6] is reported as 8.7.
On to `N[C@@H](CSCC(=O)O)C(=O)O` [Carbocysteine], for which the “pseudovirus cell entry” value in data set [1] is on record as “did not inhibit viral cell entry”.
`O=C(O)C(S)C(S)C(=O)O` (stereo not shown) [Dimercaptosuccinic acid]: the “pKa (thiol group)” value in data set [6] is 8.9; in [6] (dithiol drugs, second thiol) it was 10.8.
In the case of `NCCCNCCS` [WR-1065], in [2], the “inhibition of binding … to ACE2” value is recorded as “strong inhibitory effects”; the “binding of RBD^original to ACE2 at one and two hours post exposure and wash” value is reported as “binding inhibition was retained for two hours”. In data set [6], the “pKa (thiol group)” value was 7.7 (WR-1065).
For `NCCCNCCSP(=O)(O)O` [Amifostine], the “pseudovirus cell entry” value in data set [1] was “did not inhibit viral cell entry”.
Take `N[C@@H](CCC(=O)N[C@@H](CS)C(=O)NCC(=O)O)C(=O)O` [Glutathione]: in data set [6], the “pKa (thiol group)” value is reported as 9.2.
For `O[C@@H]1[C@@H](O)[C@@H](O[C@H]2O[C@H](CS)[C@@H](O)[C@H](O)[C@H]2O)O[C@H](CS)[C@H]1O` [MUC-31, 6,6′-dithiotrehalose], in [1], the “pseudovirus cell entry” value is “decrease the entry efficiency”. In addition, in [2], the “inhibition of binding … to ACE2” value is given as “decreased binding; also recorded: strong inhibitory effects”; the “binding of RBD^original to ACE2 at one and two hours post exposure and wash” value is “binding inhibition was retained for two hours”. For the same compound, the “cytopathic effects (CPE) in virus-infected cells, virus exposed to drug prior to infection” value in [3] is recorded as “inhibit live virus infection; also recorded: significantly inhibited”. In addition, in data set [7], the “binding inhibition after drug is washed out of the reaction mixture” value was “binding inhibition persists following drug contact”, the “inhibition of binding of ACE2 to SARS-2-S” value is reported as “inhibit binding” and the “potency in inhibiting ACE2 binding compared to NAC” value was “stronger potency”. In addition, in data set [8], the “effectiveness for inhibiting viral entry compared with NAC” value was “more effective than NAC”; the “inhibition of VSV-S cellular entry” value is “inhibited VSV-S cellular entry; also recorded: inhibited from entering”; the “inhibition of VSV-S entry, all three concentrations” value is recorded as “potent inhibition”. Moreover, the “average mass median aerodynamic diameter (MMAD) of the exposure atmosphere” value in data set [9] turned out to be 2.60 µm. Moreover, in data set [5] (0.5 mg/kg), the “SARS-CoV2 viral titers (viral RNA, RT-qPCR) in lungs” value is given as “decreases; also recorded: significantly lower”; the “interleukin-6 levels in lung lavage” value is recorded as “lower than control”; the “lung weights normalized to terminal body weights” value is reported as “lower than in control groups”; the “macrophages in BAL fluid” value is given as “decreases”. In data set [5] (0.5 mg/kg), the “severity of SARS-CoV2 lung inflammation” value is “decreased; also recorded: limit SARS-COV-2-associated lung inflammation” and the “total leukocyte counts in the bronchoalveolar lavage (BAL) fluid” value is listed as “lower than control”.
For the compound `O=S(=O)([O-])CCS.[Na+]` [MESNA, 2-mercaptoethane sulfonate, sodium salt], in data set [2], the “inhibition of binding … to ACE2” value is on record as “strong inhibitory effects”; the “binding of RBD^original to ACE2 at one and two hours post exposure and wash” value is “binding inhibition was retained for two hours”. Also, the “antiviral efficacy in vitro compared with NAC” value in data set [4] was “superior antiviral efficacy in vitro”.
As for `CC(=O)N[C@@H](CS)C(=O)O` [NAC, N-acetyl-L-cysteine], the “inhibition of binding of ACE2 to SARS-2-S” value in [7] is “inhibit binding”. In addition, in data set [8], the “cell entry inhibition of VSV-S, only 5 and 25 mM” value was “significant cell entry inhibition”; the “inhibition of VSV-S cellular entry” value is reported as “inhibited VSV-S cellular entry; also recorded: inhibited from entering”.
As for `CC(C)(S)C(=O)N[C@@H](CS)C(=O)O` [Bucillamine], the “pKa (thiol group)” value in [6] was 8.4; in data set [6] (dithiol drugs, second thiol), 10.2.
For the compound `CC(C)(S)[C@@H](N)C(=O)O` [Penicillamine], the “pKa (thiol group)” value in data set [6] is 10.5.
